This passage reports GI50 and TGI results from PubChem BioAssay (NCI).

What all share (assay): NCI anticancer screen, dose series, 48 h
The subject of experiment [1] is A549 NSCLC.
Experiment [2] concerns HCT-15 colon.
In experiment [3] the test system is MALME-3M melanoma.
In experiment [4] the test system is MDA-MB-231 breast.
The subject of experiment [5] is NCI-H226 lung.
Experiment [6] deals with NCI/ADR-RES ovarian.
In experiment [7] the test system is OVCAR-4 ovarian.
For experiment [8], the system named is RXF 393 renal.
In experiment [9] the test system is T-47D breast.
Experiment [10] relates to U251 CNS.

“And” between values parts separate entries of the source, which are not always exact repeats. Equal values may be shown once.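 Dose response: 5 concentrations. Exposure: 48 h. Format: 96-well plates. Endpoint: linear interpolation; highest concentration if not reached. At the GI50, growth is halved. TGI: total growth inhibition.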 Some results are limits rather than exact numbers.

`COc1ccc(C2C(C#N)=C(N)Oc3c2sc2c(Br)cccc32)cc1` (configuration not stated): the GI50 in experiment [1] was 4.69 µM; in [2] it was 0.93 µM; in [3], 4.75 µM; in [4] it was 2.78 µM; in experiment [5] it was 6.62 µM; in experiment [6] it was 0.767 µM. Further, the GI50 is 3.02 µM in [7], 1.94 µM in [8], 3.13 µM in [9] and 3.25 µM in experiment [10]. In addition, the TGI in experiment [1] came out at 21 µM; in experiment [2], 10.7 µM; in [3], 25.3 µM; in experiment [4], 12.7 µM; in [5], 24 µM; in [6], 4.26 µM. Moreover, the TGI in [7] turned out to be 21.9 µM; in [8], 5.96 µM; in experiment [9], 15 µM; in experiment [10] it was 12.4 µM.

In the case of `COc1ccc(-c2cc(-c3ccc(Cl)cc3)nc(NCCCCNc3ccnc4cc(Cl)ccc34)n2)cc1`, the GI50 is 1.87 µM in [1]; 1.69 µM in [2]; 1.75 µM in experiment [3]; 1.72 µM in experiment [4]; 31.8 µM in experiment [5]; 1.6 µM in [6]. Moreover, the GI50 in experiment [7] is 1.72 µM; in experiment [8], 1.65 µM; in experiment [9] it was 12.3 µM; in experiment [10], 11 µM. The TGI in experiment [1] was 3.9 µM; in experiment [2], 3.71 µM; in [3], 3.36 µM; in experiment [4], 3.28 µM; in [5], more than 100 µM; in [6] it was 3.37 µM. The TGI was found to be 3.49 µM in experiment [7], 5.2 µM in [8], 31.4 µM in [9] and 23.8 µM in experiment [10].

In the case of `COc1cc(-c2nc3ccccc3o2)cc(CN2CCCCC2)c1O`, the GI50 in [1] is 1.63 µM; in experiment [2] it was 1.05 µM; in experiment [3] it was 1.8 µM; in [4], 12.2 µM; in [5], 1.85 µM; in experiment [6], 5.79 µM. In addition, the GI50 in experiment [7] was 9.48 µM; in [8] it was 17.1 µM; in [9] it was 17 µM; in [10], 1.84 µM. Also, the TGI was 4.12 µM in experiment [1]; 26 µM in experiment [2]; 3.87 µM in [3]; more than 100 µM in experiment [4]; 4.32 µM in experiment [5]; 76.4 µM in [6]. Further, the TGI is more than 71.8 µM in experiment [7], 52 µM in [8], more than 100 µM in [9] and 9.54 µM in [10].

On to `C=C1C(=O)O[C@H]2[C@H]1CC/C(COC(=O)/C=C\C(=O)NCc1ccc(Cn3c(=O)sn(CCI)c3=O)cc1)=C\CC[C@@]1(C)O[C@@H]21`, for which the GI50 was 14.8 µM in [1]; 2.1 µM in [2]; 1.85 µM in [3]; 2.52 µM in [4]; 20.9 µM in [5]; 10.2 µM in experiment [6]. In addition, the GI50 in [7] was 3.62 µM; in experiment [8] it was 1.81 µM; in experiment [9] it was 2.58 µM; in experiment [10] it was 7.63 µM. Further, the TGI in experiment [1] was 30.5 µM; in experiment [2], 5.42 µM; in experiment [3], 3.63 µM; in experiment [4] it was 6.68 µM; in experiment [5], 49 µM; in experiment [6], more than 100 µM. Moreover, the TGI in [7] was found to be 17.3 µM; in [8], 3.69 µM; in experiment [9] it was 6.83 µM; in experiment [10], 20.2 µM.

Regarding `CCN(CC)c1ccc(-c2cc(-c3cc(OC)c(OC)c(OC)c3)nc(N3CCC(O)CC3)c2C#N)cc1`, the GI50 is 0.326 µM in [1]; 0.26 µM in experiment [2]; 0.303 µM in [3]; 0.214 µM in experiment [4]; 0.756 µM in experiment [5]; 0.272 µM in experiment [6]. Further, the GI50 in experiment [7] is 0.789 µM; in [8], 0.193 µM; in experiment [9] it was 0.495 µM; in [10], 0.398 µM. Besides, the TGI in experiment [2] is 1.93 µM; in experiment [3], 1.18 µM; in [4], 1.77 µM; in [5], 5.77 µM; in [6], 5.95 µM; in experiment [7], more than 100 µM. In addition, the TGI in experiment [8] turned out to be 2.93 µM; in experiment [9], 3.8 µM; in experiment [10], 1.8 µM.

Turning to `COc1ccc2c(c1)/C(=C\c1c(-c3cc(OC)ccc3OC)nc3sccn13)C(=O)N2`, the GI50 in experiment [1] was 48.6 µM; in experiment [2], 7.19 µM and 5.37 µM; in experiment [3] it was 1.38 µM; in [4], 3.32 µM; in experiment [5], 11.8 µM; in experiment [6], 4.83 µM and 1.7 µM. Further, the GI50 is 1.53 µM in experiment [7], 1.77 µM in experiment [8], 1.32 µM in experiment [9] and 9.76 µM in experiment [10]. For the same molecule, the TGI in experiment [1] was more than 100 µM; in [2] it was 18.7 µM; in [3] it was 2.97 µM; in experiment [4], 14.2 µM; in [5], 54.2 µM; in [6], 3.39 µM. Further, the TGI was 2.87 µM in experiment [7], 3.93 µM in experiment [8], 2.74 µM in experiment [9] and 24.5 µM in [10].

As for `Oc1[nH]c2ccccc2c1/C=c1/ccc2c(c1)N=C(c1ccc(C(F)(F)F)cc1)N=2`, the GI50 in experiment [1] was 4.81 µM; in experiment [2], 4.09 µM; in experiment [3], 2.9 µM; in experiment [4], 2.04 µM; in experiment [5], 14.5 µM; in experiment [6], 3.98 µM. Moreover, the GI50 was 3.94 µM in [7], 2.21 µM in experiment [8], 3.58 µM in [9] and 2.83 µM in [10]. Also, the TGI in [1] is 17.8 µM; in experiment [2], 20.3 µM; in experiment [3], 9.23 µM; in [4], 14 µM; in experiment [5], 30.5 µM; in experiment [6] it was 13.1 µM. In addition, the TGI in experiment [7] was 15.8 µM; in experiment [8] it was 4.32 µM; in [9], 14.4 µM; in [10] it was 12.8 µM.

As for `CCCc1nc(Cl)c(Cl)c(Cl)n1`, the TGI in [1] was more than 100 µM; in [2], more than 63.7 µM; in [3], more than 51.4 µM; in [4], 67.9 µM; in [5] it was more than 94.6 µM; in [6], more than 100 µM. In addition, the TGI in experiment [7] is 33.4 µM; in experiment [8] it was 56.4 µM; in experiment [9] it was more than 100 µM; in experiment [10], 30.1 µM.

With `O=C1NC2(CCCCC2)C(=O)N1CCN(CCCl)CCCl`, the GI50 is more than 25 µM in [1]; > 25 µM and 200 µM in experiment [2]; more than 25 µM in experiment [3]; more than 25 µM in experiment [5]; more than 25 µM in [6]; more than 25 µM in experiment [7]. Also, the GI50 in [8] was > 25 µM and 99.2 µM; in experiment [10], more than 25 µM. Moreover, the TGI in experiment [1] is more than 250 µM; in experiment [2] it was more than 242 µM; in experiment [3], more than 194 µM; in [4], more than 25 µM; in [5], more than 250 µM; in experiment [6], > 25 µM and 184 µM. Further, the TGI is more than 250 µM in [7]; > 25 µM and 202 µM in experiment [8]; 25 µM in experiment [9]; more than 250 µM in [10].

With `Cc1ccc(Cl)c(NS(=O)(=O)c2ccc(-c3cnc(C4CC4)o3)cc2)c1`, the GI50 was 0.146 µM in experiment [1]; 0.055 µM in experiment [2]; 11 µM in experiment [3]; 0.651 µM in [4]; 1.03 µM in [5]; 0.0618 µM in experiment [6]. Besides, the GI50 was 2.1 µM in experiment [7], 0.199 µM in experiment [8], 0.0481 µM in [9] and 0.142 µM in [10]. Moreover, the TGI in experiment [1] is more than 100 µM; in experiment [2], 18.2 µM; in [3], 49.7 µM; in [4], more than 100 µM; in experiment [5] it was 28.1 µM; in [6], 6.04 µM. The TGI in [7] was 80.6 µM; in experiment [8], more than 100 µM; in [9], 67.9 µM; in experiment [10], 26.5 µM.

For `Nc1ncc(-c2ccc3ncnc(N4CCc5ccc(Cl)cc54)c3c2)cc1C(F)(F)F`, the GI50 in experiment [1] was 1.29 µM; in experiment [2], 1.3 µM; in [3], 0.919 µM; in [4], 1.29 µM; in experiment [5], 3.04 µM; in experiment [6], 2.26 µM. In addition, the GI50 in experiment [7] was 1.07 µM; in [8], 0.181 µM; in experiment [9], 0.557 µM; in experiment [10] it was 2.65 µM. Moreover, the TGI in [1] amounted to 14 µM; in experiment [2], 22.6 µM; in experiment [3] it was 6.22 µM; in [4], 12.4 µM; in [5] it was 24.1 µM; in experiment [6] it was 91.1 µM. For the same molecule, the TGI in [7] was determined as 3.23 µM; in [8], 0.864 µM; in experiment [9] it was 10.9 µM; in experiment [10], 16.6 µM.

As for `NC(Cc1c[nH]c2ccc([N+](=O)[O-])cc12)C(=O)O` (configuration not stated), the TGI in experiment [1], in [2], in [3], in experiment [4], in experiment [5] and in experiment [6] was more than 100 µM in each case. In addition, the TGI in experiment [7], in experiment [8], in [9] and in experiment [10] was more than 100 µM throughout.

Regarding `CCOc1ccc(C(C[N+](=O)[O-])Sc2ccccc2N)cc1` (configuration not stated), the GI50 in experiment [1] is 7.82 µM; in experiment [2], 2.01 µM; in experiment [3], 12.3 µM; in experiment [4], 2.43 µM; in experiment [5], 3.96 µM; in experiment [6], 14.3 µM. In addition, the GI50 is 13 µM in experiment [7], 2.1 µM in experiment [8], 6.77 µM in experiment [9] and 2.96 µM in experiment [10]. Also, the TGI is 23 µM in experiment [1]; 4.75 µM in experiment [2]; 24.7 µM in experiment [3]; 7.84 µM in experiment [4]; 16.2 µM in [5]; 28.1 µM in experiment [6]. The TGI worked out at 26 µM in experiment [7], 4.6 µM in [8], 25.3 µM in experiment [9] and 10.6 µM in [10].

`Cc1nc2sc3c(N)ncnc3c2c(C)c1C`: the GI50 in experiment [1], in experiment [2], in experiment [3], in experiment [4], in experiment [5] and in experiment [6] was more than 25 µM in each case. Moreover, the GI50 in experiment [7], in experiment [8], in [9] and in experiment [10] was more than 25 µM each time. The TGI in experiment [1], in experiment [2], in experiment [3], in experiment [4], in experiment [5] and in experiment [6] was more than 25 µM in each case. Also, the TGI in [7], in experiment [8], in experiment [9] and in experiment [10] was more than 25 µM each time.

For `Cn1cc(C2=C(c3cn(CCCN)c4ccccc34)C(=O)NC2=O)c2ccccc21`, the GI50 was 5.65 µM in experiment [1]; 5.14 µM in experiment [2]; 5.66 µM in [3]; 6.49 µM in experiment [4]; 5.87 µM in experiment [5]; 10.8 µM in experiment [6]. In addition, the GI50 is 4.22 µM in [7], 3.4 µM in experiment [8], 6.4 µM in experiment [9] and 5.01 µM in [10]. Also, the TGI is 17.4 µM in [1]; more than 25 µM in experiment [2]; 10.6 µM in experiment [3]; 16.7 µM in experiment [4]; more than 18 µM in experiment [5]; more than 25 µM in experiment [6]. The TGI was determined as 12.9 µM in [7], 7.42 µM in experiment [8], 17.5 µM in experiment [9] and 11.5 µM in experiment [10].
